Values after ≈ are worked out from the molar mass of the structure shown.

In series [1] the test system is C. albicans 4251. Nature of the series: Cell cycle analysis (Muse cell analyser). It counts as cell-based, Candida albicans. Particulars: 10 mM H2O2 positive control; stated for C. albicans without naming a strain. On the procedure:
The effect of C1 on the cell cycle of C. albicans 4251 and C. albicans 5112 was determined using Cell Cycle kit MCH100106 in a Guava® Muse® Cell Analyser according to the manufacturer's instructions. The cells of the C. albicans (1×10^6 cells/mL) were exposed to C1 for 4 h at different concentrations (0.5×MIC and 1×MIC). Each sample was rinsed with fresh PBS after exposure, and the pellet was fixed in 1 mL of 70% ice-cold ethanol (Sigma Aldrich Co., USA). The Cell Cycle assay was prepared by mixing the 100 μL of Luminex® Cell Cycle dye and 100 μL of the prewashed fixed cells and incubated in the dark for 30 minutes at room temperature. All samples were analysed by a Guava® Muse® Cell Analyser (Luminex® A DiaSorin Company, USA). During the experiment, both the negative (without treatment) and positive control (10 mM H2O2 treated) were used.

Series [2] relates to C. albicans 5112. Nature of the series: JC-10 mitochondrial membrane potential assay. The class given is cell-based, Candida albicans. Particulars: C. albicans 5112, H2O2 treated positive control; negative control 2.92. The procedure: (§1) To examine the effect of C1 on the induction of cellular apoptosis in C. albicans cells, crucial apoptotic markers were observed. For this purpose, C. albicans 4251 and C. albicans 5112 cells were subjected to protoplast preparation by utilizing a method described previously by Srivastava et al. in 2020 through their research study. […] Later on, the cells were washed and incubated for 10 min at room temperature in protoplast buffer-1 (1M sorbitol, 0.05M tris base, 0.01M MgCl2, 0.03M DTT, pH 7.4). The cells were spun at 1500 rpm for 5 min and the pellet was resuspended in protoplast buffer-2 (1M sorbitol, 0.05M tris base, 0.01M MgCl2, 0.001M DTT, pH 7.4) supplemented with […] enzyme (1 μg/mL) and incubated for 1 h at room temperature. Afterwards, the cell suspension was again centrifuged, and the pellet was resuspended and incubated for 20 min at room temperature in protoplast buffer-3 (1M sorbitol, 0.05M tris base, 0.01M MgCl2, pH 7.4). A final washing (1500 rpm for 5 min) was given to the cells and the pellet consisting of C. albicans protoplasts was resuspended in fresh PBS and was stored at 4° C. until further use. Measurement of mitochondrial membrane potential in C. albicans was carried out and the potential of C1 in destabilising mitochondrial membrane potential (Δψm) in C. albicans was established by JC-10 mitochondrial membrane potential assay kit (Abeam, Cambridge, UK). The experiment was performed according to manufacturer instructions. 90 μL of prepared protoplast of C. albicans 4251 and C. albicans 5112 was added to a 96-well microplate (with black walls and clear bottom), followed by the addition of 50 μL/well of JC-10 dye-loading solution. The microplate was incubated for 1 hour at 37° C. in the dark. This was followed by the addition of 50 μL/well of assay buffer B. The microplate was then immediately centrifuged at 800 rpm for 2 minutes. The fluorescence intensity was monitored at an Ex/Em=490/530 nm (present in apoptotic cells, monomeric form and green fluorescence; represented as X) and 540/590 nm (present in live cells, dye aggregates and red fluorescence; represented as Y) using a SpectraMax® ID3 Multimode Plate Reader (Molecular Devices, LLC., USA). The ratio between the aggregate and monomeric forms was measured to find the change in mitochondrial membrane potential. The mitochondrial membrane depolarization is indicated by decreasing ratio values.

Series [3] deals with C. albicans 4251. Nature of the series: JC-10 mitochondrial membrane potential assay. It counts as cell-based, Candida albicans. Particulars: C. albicans 4251, H2O2 treated positive control; negative control 2.65. On the procedure:
as §1

Series [4] concerns C. albicans 5112. Nature of the series: Cell count and viability assay (Muse cell analyser). It counts as cell-based, Candida albicans. The note with it: C. albicans 5112, hydrogen peroxide 10 mM 1:1 with inoculum, 24 h; untreated 86.8%. The procedure:
(§2) Quantification of Live/Dead C. albicans cells in response to C1 was carried out. The actual count of viable and dead cells of C. albicans by treatment of C1 was monitored by Cell Count and Viability assay kit. An inoculum (1×10^6 cells/mL) of both Flz sensitive (C. albicans 4251) and resistant (C. albicans 5112) C. albicans strains was prepared followed by treatment with various concentrations of C1 (0.5×MIC, 1×MIC and MFC) for 24 h at 37° C. and 150 rpm. For the negative control, only inoculum treated with 1% DMSO was used and for the positive control, hydrogen peroxide (10 mM) was used in a 1:1 ratio with the inoculum. Following incubation, the cells were then washed in PBS and centrifuged at 4000 rpm for 5 minutes at 4° C. and the final pellet was resuspended in PBS. The Cell Count and Viability assay samples were prepared by mixing 190 μL of Luminex Cell Viability Dilution Buffer and 10 μL of the sample in a 1.5 mL Eppendorf tube and incubated in the dark for 5 min at room temperature. All samples were analysed by a Guava® Muse® Cell Analyser (Luminex A DiaSorin Company, USA).

Series [5] deals with C. albicans 4251. The description is as above. It counts as cell-based, Candida albicans. The note with it: C. albicans 4251, hydrogen peroxide 10 mM 1:1 with inoculum, 24 h; untreated 90.9%. The procedure:
as §2

The subject of series [6] is C. albicans 4554. Nature of the series: Broth microdilution MIC/MFC (CLSI M27-A4). It counts as cell-based, Candida albicans. Particulars: Candida albicans; C. albicans 4554 (Flz sensitive), 37° C., 24 h; read-out: Median MIC. On the procedure:
(§3) In this work, nine strains of C. albicans procured from Charlotte Maxeke Johannesburg Academic Hospital under ethical clearance number M000402 were employed (Table 1). All the C. albicans strains were preserved at −70° C. deep freezer in 50% (v/v) anhydrous glycerol (Sigma-Aldrich St. Louis, MO, U.S.A.). For conducting experiments, cultures were revived in Sabouraud Dextrose broth (SDB; Merck, Germany) at 37° C. and 120 rpm for 24 h. Additionally, the RPMI 1640 medium and MOPS (Sigma-Aldrich, USA) were prepared as described by the Clinical and Laboratory Standards Institute (CLSI).
(§4) The activity of C1 against Candida species (n=9) was first estimated in terms of minimum inhibitory concentration (MIC) and minimum fungicidal concentration (MFC). […] Briefly, stock solutions of Flz (used as reference; Sigma-Aldrich St. Louis, MO, U.S.A.) and the synthesized compound was prepared in 1% dimethyl sulfoxide (DMSO; Sigma-Aldrich St. Louis, MO, U.S.A.) and the test concentrations were formulated in RPMI 1640-MOPS medium. A two-fold dilution of the compound (1250-0.61 μg/mL) and reference drug (128-0.062 μg/mL) was prepared in 96 well plates which were then seeded with C. albicans inoculum (1×10^6 cells/mL) and incubated at 37° C. for 24 h. In every set of experiments, sterility control, 1% DMSO as negative control and growth control were included. Growth was quantified by reading the optical density at 620 nm in a UV-1800 SHIMADZU spectrophotometer (Shimadzu Corporation, Japan). The MIC was determined as the lowest concentration that inhibited the growth of Candida strains. To determine MFC, each well without visible growth was subcultured onto the SDA plates for 24 hours at 37° C. The lowest concentration killing ≥99.9% of Candida was taken as the MFC value of the test compound.

Series [7] deals with C. albicans 4175. Nature of the series: Broth microdilution MIC/MFC (CLSI M27-A4). It counts as cell-based, Candida albicans. The note with it: Candida albicans; C. albicans 4175 (Flz sensitive), 37° C., 24 h; read-out: Median MIC. On the procedure: as §3, §4
Series [8] has as its system C. albicans 4324. Nature of the series: Broth microdilution MIC/MFC (CLSI M27-A4). Particulars: Candida albicans; C. albicans 4324 (Flz resistant), 37° C., 24 h; read-out: Median MIC. It counts as cell-based, Candida albicans. The procedure:
as §3, §4

For series [9], the system named is C. albicans 4180. Nature of the series: Broth microdilution MIC/MFC (CLSI M27-A4). It counts as cell-based, Candida albicans. Particulars: Candida albicans; C. albicans 4180 (Flz sensitive), 37° C., 24 h; read-out: Median MIC. The procedure:
as §3, §4

Series [10] deals with C. albicans 4085. Nature of the series: Broth microdilution MIC/MFC (CLSI M27-A4). The class given is cell-based, Candida albicans. Particulars: Candida albicans; C. albicans 4085 (Flz resistant), 37° C., 24 h; read-out: Median MIC. The procedure: as §3, §4
The test system of series [11] is C. albicans 5112. Nature of the series: Broth microdilution MIC/MFC (CLSI M27-A4). The class given is cell-based, Candida albicans. Particulars: Candida albicans; C. albicans 5112 (Flz resistant), 37° C., 24 h; read-out: Median MIC. The procedure:
as §3, §4

Series [12] relates to C. albicans SC5314. Nature of the series: Broth microdilution MIC/MFC (CLSI M27-A4). The class given is cell-based, Candida albicans. Particulars: Candida albicans; C. albicans SC5314 (control), 37° C., 24 h; read-out: Median MIC. On the procedure:
as §3, §4

The test system of series [13] is C. albicans 4251. Nature of the series: Broth microdilution MIC/MFC (CLSI M27-A4). It counts as cell-based, Candida albicans. Particulars: Candida albicans; C. albicans 4251 (Flz sensitive), 37° C., 24 h; read-out: Median MIC. On the procedure: as §3, §4
The subject of series [14] is C. albicans 4106. Nature of the series: Broth microdilution MIC/MFC (CLSI M27-A4). It counts as cell-based, Candida albicans. Particulars: Candida albicans; C. albicans 4106 (Flz resistant), 37° C., 24 h; read-out: Median MIC. The procedure:
as §3, §4

For the molecule `OO` [Complex H2O2, hydrogen peroxide, reference compound], the “impact on the cell cycle” value in series [1] is “not much impact”. Also, the “average fluorescence ratio JC-10 aggregates/JC-10 monomers” value in [2] was found to be 2.75; in series [3] it was 2.5. Also, the live cells in [4] stood at 26.1%; in [5] it was 19.9%.
For the molecule `OC(Cn1cncn1)(Cn1cncn1)c1ccc(F)cc1F` [Flz, fluconazole, reference compound], the MIC in [6] amounted to 0.25 mg/L (≈ 0.816 µM); in series [7], 0.25 mg/L (≈ 0.816 µM); in series [8] it was 32 mg/L (≈ 104 µM); in [9], 0.25 mg/L (≈ 0.816 µM); in series [10], 16 mg/L (≈ 52.2 µM); in series [11], 64 mg/L (≈ 209 µM). Further, the MIC was 0.25 mg/L (≈ 0.816 µM) in [12], 0.5 mg/L (≈ 1.63 µM) in [13] and 32 mg/L (≈ 104 µM) in series [14].
The molecule `Oc1ccc(Br)cc1/C=N/c1ccc2c(c1)OCCO2` [L, (E)-4-bromo-2-{[(2,3-dihydrobenzo[b][1,4]dioxin-6-yl)imino]methyl}phenol] came in with a melting point of 119 °C.

(Values after patent US11780868B1, “Homoleptic metal coordination complexes as antifungal agents” (King Abdulaziz University, priority 2023, dated 2023).)
